Here are results for 12 compounds from patent publication US10383861B2, “3-(1H-pyrrolo[2,3-C]pyridin-2-yl)-1H-pyrazolo[3,4-C]pyridines and therapeutic uses thereof” (Samumed, LLC, priority 2015, dated 2019).

Common to all, as to assay type: cell-based
In assay [1] the test system is Wnt activity. In words: Wnt activity screening assay, Sp5-Luc reporter gene in SW480 cells. The following applies: Homo sapiens; for EC50: Sp5-Luc reporter, SW480 cells, overnight incubation; for inhibition at 10 µM: SW480, read-out: percent inhibition at 10 μM. Put shortly: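 Read-out is BrightGlo luminescence, normalized to DMSO-treated cells and fitted by four-parameter variable-slope regression for EC50. Reporter cells: SW480 colon carcinoma carrying a stable lentiviral Sp5-Luc construct with eight TCF/LEF sites, seeded 4,000/well in 1% FBS, incubated overnight at 37° C.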
For orientation: In a reporter assay the amount or activity of a reporter protein is the signal.

Assay [2] concerns primary human fibroblasts derived from IPF patients (LL29 cells). As to the kind of experiment: Inhibition of the fibrotic process: αSMA staining in TGF-β1 treated LL29 fibroblasts. Conditions: Fibroblast; for EC50: 96 h, LL29 cells, TGF-β1 20 ng/mL, 4 days, % αSMA positive cells; for inhibition at 10 µM: read-out: percent inhibition at 10 μM. The method in brief: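 Read-out after 4-day incubation: αSMA staining with 1 μM SYTOX green nuclear counterstain (30 min, room temperature). Cells were LL29 primary fibroblasts from IPF patients, in 1% FBS F12, exposed to TGF-β1 with test compound, referenced to TGF-β1/DMSO control wells.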

The subject of assay [3] is SW480 colon cancer cells. In words: Cell viability assay (CellTiter-Blue) in SW480 colon cancer cells. The following applies: Homo sapiens; for EC50: 96 h, SW480 cell viability, four days, CellTiter-Blue; for inhibition at 10 µM: SW480, read-out: percent inhibition at 10 μM. Put shortly:
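Fluorescence from resazurin reduced to resorufin by metabolically active cells was the read-out, taken after ~3 h with CellTiter-Blue.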

Assay [4] relates to primary human mesenchymal stem cells (hMSCs). As to the kind of experiment: Induction of chondrogenesis in hMSCs (nodule count, Rhodamine B/Nile Red). The following applies: 6 days; for EC50: concentration required to induce 50% levels of chondrogenesis vs TGF-β3, read-out: Conc (nM) of 50% TGF-β3 activity; for Emax: relative to TGF-β3 (10 ng/mL) positive control, read-out: Max. Activity as % TGF-β3 activity. From the text:
Representative compounds were screened using primary human mesenchymal stem cells (hMSCs) to determine their ability to induce chondrogenesis (process by which cartilage is developed).
Primary human mesenchymal stem cells (hMSCs) were purchased from Lonza (Walkersville, Md.) and expanded in Mesenchymal Stem Cell Growth Media (Lonza). Cells between passage 3 and 6 were used for the experiments.
To image chondrogenic nodules, the cells were fixed using 4% formaldehyde (Electron Microscopy Sciences), and stained with 2 μg/mL Rhodamine B (Sigma-Aldrich) and 20 μM Nile Red (Sigma-Aldrich) [Johnson K., et.al, A Stem Cell-Based Approach to Cartilage Repair, Science, (2012). […] Number of nodules in each well was normalized to the average of 3 DMSO treated wells on the same plate using Excel (Microsoft Inc.). The normalized averages (fold change over DMSO) of 3 replicate wells for each compound concentration were calculated. Due to solubility limitations of some of the compounds, curve fitting was incomplete leading to inaccurate EC50 determinations.
Using TGF-β3 as a positive control, the concentration of representative compounds required to induce 50% levels of chondrogenesis is reported. In addition, the maximum activity of each compound and the respective dose that each compound reached maximum chondrogenesis activity is reported.

The subject of assay [5] is IL-6. In words: IL-6 inhibition in LPS-stimulated THP-1 cells (HTRF). Conditions: Homo sapiens; for inhibition at 10 µM: THP-1, read-out: percent inhibition at 10 μM; for EC50: THP-1 cells, LPS 500 ng/mL, 22 hours, IL6 HTRF. Put shortly: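 After 24 h in 1% FBS medium, cells had compound 2 h before 500 ng/mL LPS, then 22 h more at 37 °C. DMSO-normalized HTRF signal (665/620 nm ratio, anti-IL-6 antibody pair) was fitted with a variable-slope four-parameter model to give EC50.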
Background: In TR-FRET formats the signal depends on donor and acceptor labels being close together.

Broadly, the inhibition is the drop in the measured response relative to a control, in per cent. Turning to `Fc1cccc(-c2cncc3[nH]c(-c4n[nH]c5cnc(-c6cncc(CN7CCCC7)c6)cc45)cc23)c1` [Compound 14, 3-(4-(3-Fluorophenyl)-1H-pyrrolo[2,3-c]pyridin-2-yl)-5-(5-(pyrrolidin-1-ylmethyl)pyridin-3-yl)-1H-pyrazolo[3,4-c]pyridine], the EC50 in assay [1] was 3970 nM; in assay [2] it was 3540 nM; in assay [3], 5690 nM; in assay [4], 100 nM; in assay [5], greater than 10000 nM. Moreover, the Emax in assay [4] came to 81%. The inhibition at 10 µM in assay [5] was 48.2%.
As for `Fc1cccc(-c2cncc3[nH]c(-c4n[nH]c5cnc(-c6cncnc6)cc45)cc23)c1` [Compound 27, 3-(4-(3-Fluorophenyl)-1H-pyrrolo[2,3-c]pyridin-2-yl)-5-(pyrimidin-5-yl)-1H-pyrazolo[3,4-c]pyridine], the EC50 worked out at 584 nM in assay [1]; 432 nM in assay [2]; 1100 nM in assay [3]; 10 nM in assay [4]; 3060 nM in assay [5]. The Emax in assay [4] turned out to be 56%.
Turning to `Fc1ccc(-c2cncc3[nH]c(-c4n[nH]c5cnc(-c6cncc(CN7CCC(F)(F)C7)c6)cc45)cc23)cc1` [Compound 54, 5-(5-((3,3-Difluoropyrrolidin-1-yl)methyl)pyridin-3-yl)-3-(4-(4-fluorophenyl)-1H-pyrrolo[2,3-c]pyridin-2-yl)-1H-pyrazolo[3,4-c]pyridine], the EC50 is 3260 nM in assay [1]; 9980 nM in assay [2]; greater than 10000 nM in assay [3]; 100 nM in assay [4]; greater than 10000 nM in assay [5]. The results for the inhibition at 10 µM in assay [3] and in assay [5] were 38.6% and 11.2%, respectively. For the same compound, the Emax in assay [4] worked out at 78%.
For `Fc1ccc(-c2cncc3[nH]c(-c4n[nH]c5cnc(-c6cncnc6)cc45)cc23)cc1` [Compound 55, 3-(4-(4-Fluorophenyl)-1H-pyrrolo[2,3-c]pyridin-2-yl)-5-(pyrimidin-5-yl)-1H-pyrazolo[3,4-c]pyridine], the EC50 in assay [1] was 555 nM; in assay [2], greater than 10000 nM; in assay [3] it was 264 nM; in assay [4] it was 900 nM; in assay [5], 975 nM. In addition, the inhibition at 10 µM in assay [2] came to 56.4%. Besides, the Emax in assay [4] was 81%.
Take `Nc1cncc(-c2cc3c(-c4cc5c(-c6ccccc6F)cncc5[nH]4)n[nH]c3cn2)c1` [Compound 59, 5-(3-(4-(2-Fluorophenyl)-1H-pyrrolo[2,3-c]pyridin-2-yl)-1H-pyrazolo[3,4-c]pyridin-5-yl)pyridin-3-amine]: the EC50 in assay [1] was found to be 1630 nM; in assay [2] it was 1770 nM; in assay [3], 3400 nM; in assay [5], 3610 nM. Further, the Emax in assay [4] came to 16%.
Regarding `CCNCc1cncc(-c2cc3c(-c4cc5c(-c6ccccc6F)cncc5[nH]4)n[nH]c3cn2)c1` [Compound 62, N-((5-(3-(4-(2-Fluorophenyl)-1H-pyrrolo[2,3-c]pyridin-2-yl)-1H-pyrazolo[3,4-c]pyridin-5-yl)pyridin-3-yl)methyl)ethanamine], the EC50 in assay [1] was 9140 nM; in assay [2] it was 2640 nM; in assay [3] it was greater than 10000 nM; in assay [5], 3660 nM. Moreover, the inhibition at 10 µM in assay [3] was 44.4%. In assay [4], the Emax was 21%.
As for `CN(C)Cc1cncc(-c2cc3c(-c4cc5c(-c6ccccc6F)cncc5[nH]4)n[nH]c3cn2)c1` [Compound 69, 1-(5-(3-(4-(2-Fluorophenyl)-1H-pyrrolo[2,3-c]pyridin-2-yl)-1H-pyrazolo[3,4-c]pyridin-5-yl)pyridin-3-yl)-N,N-dimethylmethanamine], the values for the inhibition at 10 µM in assay [1] and in assay [5] were 49.2% and 24.7%, respectively. Moreover, the EC50 in assay [1] was greater than 10000 nM; in assay [2], 9720 nM; in assay [3], 6310 nM; in assay [4] it was 2700 nM; in assay [5], greater than 10000 nM. The Emax in assay [4] was 54%.
As for `c1cncc(-c2cc3c(-c4cc5c(-c6cccnc6)cncc5[nH]4)n[nH]c3cn2)c1` [Compound 88, 5-(Pyridin-3-yl)-3-(4-(pyridin-3-yl)-1H-pyrrolo[2,3-c]pyridin-2-yl)-1H-pyrazolo[3,4-c]pyridine], the EC50 in assay [1] was 1340 nM; in assay [2], greater than 10000 nM; in assay [3], greater than 10000 nM; in assay [4], 100 nM; in assay [5] it was greater than 10000 nM. Moreover, the inhibition at 10 µM is 82.9% in assay [2], 37.4% in assay [3] and 36.6% in assay [5]. Also, the Emax in assay [4] was determined as 76%.
With `CCNCc1cncc(-c2cc3c(-c4cc5c(-c6cccnc6)cncc5[nH]4)n[nH]c3cn2)c1` [Compound 90, N-((5-(3-(4-(Pyridin-3-yl)-1H-pyrrolo[2,3-c]pyridin-2-yl)-1H-pyrazolo[3,4-c]pyridin-5-yl)pyridin-3-yl)methyl)ethanamine], the EC50 was 3730 nM in assay [1]; greater than 10000 nM in assay [2]; greater than 10000 nM in assay [3]; 10 nM in assay [4]; 1060 nM in assay [5]. For the same compound, the values for the inhibition at 10 µM in assay [2] and in assay [3] were 0% and 13%, respectively. For the same compound, the Emax in assay [4] came out at 68%.
As to `FC1(F)CCN(Cc2cncc(-c3cc4c(-c5cc6c(-c7cccnc7)cncc6[nH]5)n[nH]c4cn3)c2)C1` [Compound 110, 5-(5-((3,3-Difluoropyrrolidin-1-yl)methyl)pyridin-3-yl)-3-(4-(pyridin-3-yl)-1H-pyrrolo[2,3-c]pyridin-2-yl)-1H-pyrazolo[3,4-c]pyridine], the EC50 was found to be 914 nM in assay [1]; 534 nM in assay [2]; 2140 nM in assay [3]; 2700 nM in assay [4]; 688 nM in assay [5]. For the same compound, in assay [4], the Emax amounted to 54%.
As for `Nc1cncc(-c2cc3c(-c4cc5c(-c6ccncc6)cncc5[nH]4)n[nH]c3cn2)c1` [Compound 115, 5-(3-(4-(Pyridin-4-yl)-1H-pyrrolo[2,3-c]pyridin-2-yl)-1H-pyrazolo[3,4-c]pyridin-5-yl)pyridin-3-amine], the values for the inhibition at 10 µM in assay [1], in assay [3] and in assay [5] were 14.2%, 22% and 4.3%, respectively. Also, the EC50 in assay [1] was greater than 10000 nM; in assay [2], 3740 nM; in assay [3], greater than 10000 nM; in assay [4], 10 nM; in assay [5], greater than 10000 nM. The Emax in assay [4] worked out at 52%.
As for `CC(C)(C)C(=O)Nc1cncc(-c2cc3c(-c4cc5c(-c6ccncc6)cncc5[nH]4)n[nH]c3cn2)c1` [Compound 120, N-(5-(3-(4-(Pyridin-4-yl)-1H-pyrrolo[2,3-c]pyridin-2-yl)-1H-pyrazolo[3,4-c]pyridin-5-yl)pyridin-3-yl)pivalamide], the inhibition at 10 µM was 22% in assay [1], 29% in assay [3] and 16.4% in assay [5]. Besides, the EC50 in assay [1] is greater than 10000 nM; in assay [2], 5350 nM; in assay [3] it was greater than 10000 nM; in assay [5] it was greater than 10000 nM. For the same compound, the Emax in assay [4] was found to be 30%.
